Test results published in patent publication US10919949B2, “Acylated insulin analogues and uses thereof” (Novo Nordisk A/S, priority 2017, dated 2021).

Assays:
[1] = tested on: isolated rat adipocytes; test: Lipogenesis in rat free fat cell assay; assay type: cell-based
Experimental: The metabolic potency of the insulin derivatives of the invention was determined by lipogenesis using isolated rat adipocytes.
In brief, epididymal fat pads were removed from killed Sprague-Dawley rats and placed in degradation buffer with collagenase (Worthington) in order to degrade the fat pads into a single-cell suspension. […] The incubation was stopped by addition of MicroScint-E (PerkinElmer), and the plates counted in a TopCount NXT (PerkinElmer).

[2] = tested on: AKT and ERK; test: Insulin receptor signalling via AKT and ERK phosphorylation in CHO-hIR cells (Western blot / Surefire); assay type: cell-based, Chinese hamster; conditions: 10 min stimulation, Table 1A
Experimental: Insulin receptor (IR) signalling of the analogues of this invention via AKT and ERK pathways was assessed either by traditional Western blotting technique or by the use of Surefire, alphascreen technique.
In brief, CHO-hIR cells were stimulated for 10 min with increasing concentrations of the insulin analogue, washed in ice-cold PBS, snap-frozen and lysed in lysis buffer (Biosource). Equal amounts of proteins were loaded on gels and blotted to nitrocellulose membranes. Phosphorylated AKT and ERK were visualised with Phospho-AKT (Ser473) (Cell signalling #9271) and pMAPK 44/42 ERK1/2 rabbit (Cell Signalling #4376) antibodies, respectively. Band intensities were evaluated using a LAS3000 (Fuji).
The responsiveness value (Span) for each analogue was calculated using non-linear regression in GraphPad Prism 7 from GraphPad Software Inc and expresses as percent of the responsiveness of insulin (% max AKT or % max ERK)

[3] = 0.1% HSA as printed, Table 1A second lipogenesis column
[4] = 0.1% HSA, Table 1A first lipogenesis column

Row | Substance | Lipogenesis 0.1% HSA EC50 (% of human insulin) [1, 3] | Lipogenesis 0.1% HSA EC50 (% of human insulin) [1, 4] | % maxERK/% maxAKT [2]
1 | N{Epsilon-B28}-[(4R)-4-[(3R,10S,13R,17R)-3-hydroxy-10,13-dimethyl-2,3,4,5,6,7,8,9,11,12,14,15,16,17-tetradecahydro-1H-cyclopenta[a]phenanthren-17-yl]pentanoyl]-[TyrB5,LysB28],des-(B29-B30)-Insulin [Example 9] | 0.49 % of human insulin | 0.40 % of human insulin | 0.29
2 | N{Epsilon-B28}-[(4S)-4-carboxy-4-[[(4R)-4-[(3R,10S,13R,17R)-3-hydroxy-10,13-dimethyl-2,3,4,5,6,7,8,9,11,12,14,15,16,17-tetradecahydro-1H-cyclopenta[a]phenanthren-17-yl]pentanoyl]amino]butanoyl]-[TyrB5,LysB28],des-(B29-B30)-Insulin [Example 8] | 0.72 % of human insulin | 1.76 % of human insulin | 0.32
